Counter-ions that a name gives are not always drawn.
How the values were obtained:
Type in all cases: in vivo, male Sprague-Dawley rats
[1] = system: cocaine self-administration; experiment: Cocaine self-administration; details: for Active Lever Presses / Inactive Lever Presses: cocaine 0.25 mg/kg/inf, mean ± SEM
[2] = Pharmacokinetics in plasma after single s.c. dose, alone or in combination; details: for half-life: t1/2; for concentration at 0 h / concentration at 15 min / concentration at 30 min / concentration at 60 min / concentration at 120 min / concentration at 180 min / concentration at 240 min / concentration at 360 min: Plasma concentration
cocaine-seeking behavior = experiment: Cocaine-seeking behavior test
[3] = male, Sprague-Dawley, rat, in vivo, sc, 0.5 mg/kg
[4] = male, Sprague-Dawley, rat, in vivo, sc, 1 mg/kg
[5] = male, Sprague-Dawley, rat, in vivo, sc, 3 mg/kg
[6] = male, Sprague-Dawley, rat, in vivo, sc, 10 mg/kg
[7] = pimavanserin 3 mg/kg s.c., 30 min pretreatment
[8] = rat plasma, single dose 0.5 mg/kg s.c., drug alone, mean ± SEM
[9] = rat plasma, single dose 1 mg/kg s.c., drug alone, mean ± SEM
[10] = rat plasma, single dose 3 mg/kg s.c., drug alone, mean ± SEM
[11] = lorcaserin 0.5 mg/kg s.c., 15 min pretreatment
[12] = lorcaserin 1 mg/kg s.c., 15 min pretreatment

Cc1cc2c(cc1Cl)N(C(=O)Nc1ccc(Oc3cccnc3C)nc1)CC2 [SB242084, 6-chloro-5-methyl-1-[[2-(2-methylpyrid-3-yloxy)pyrid-5-yl]carbamoyl] indolinedihydrochloride]
Effect on lorcaserin-evoked suppression of cocaine intake ([1]; SB242084 0.5 mg/kg i.p. plus lorcaserin 1 mg/kg, p < 0.05, Fig. 1B): prevented this lorcaserin-evoked suppression of cocaine intake

CC(C)COc1ccc(CNC(=O)N(Cc2ccc(F)cc2)C2CCN(C)CC2)cc1 [Pimavanserin]
AUC0-inf [2, 3]: 15.02 ± 0.32 ng·h/mL
AUC0-t [2, 3]: 14.40 ± 0.31 ng·h/mL
AUCExtrap [2, 3]: 3.89 ± 1.42%
Cl/F [2, 3]: 556.7 ± 12.2 mL/min/kg
Cmax [2, 3]: 12.17 ± 0.38 ng/mL
Half-life, t1/2 [2, 3]: 77.4 ± 27 min
Tmax [2, 3]: 17.4 ± 2.4 min
λ [2, 3]: 0.76 ± 0.14 h⁻¹
Plasma concentration ([2]; male, Sprague-Dawley, rat, in vivo, sc, 0.5 mg/kg, 0 h): 0.08 ± 0.05 ng/mL
Plasma concentration ([2]; male, Sprague-Dawley, rat, in vivo, sc, 0.5 mg/kg, 15 min): 12.15 ± 0.39 ng/mL
Plasma concentration ([2]; male, Sprague-Dawley, rat, in vivo, sc, 0.5 mg/kg, 30 min): 9.93 ± 0.50 ng/mL
Plasma concentration ([2]; male, Sprague-Dawley, rat, in vivo, sc, 0.5 mg/kg, 60 min): 5.40 ± 0.23 ng/mL
Plasma concentration ([2]; male, Sprague-Dawley, rat, in vivo, sc, 0.5 mg/kg, 120 min): 2.09 ± 0.13 ng/mL
Plasma concentration ([2]; male, Sprague-Dawley, rat, in vivo, sc, 0.5 mg/kg, 180 min): 0.86 ± 0.11 ng/mL
Plasma concentration ([2]; male, Sprague-Dawley, rat, in vivo, sc, 0.5 mg/kg, 240 min): 0.45 ± 0.10 ng/mL
Plasma concentration ([2]; male, Sprague-Dawley, rat, in vivo, sc, 0.5 mg/kg, 360 min): 0.13 ± 0.06 ng/mL
AUC0-inf [2, 4]: 41.72 ± 2.7 ng·h/mL
AUC0-t [2, 4]: 41.27 ± 2.64 ng·h/mL
AUCExtrap [2, 4]: 1.09 ± 0.28%
Cl/F [2, 4]: 409.2 ± 30.2 mL/min/kg
Cmax [2, 4]: 30.13 ± 2.17 ng/mL
Half-life, t1/2 [2, 4]: 53.4 ± 3 min
λ [2, 4]: 0.79 ± 0.04 h⁻¹
Plasma concentration ([2]; male, Sprague-Dawley, rat, in vivo, sc, 1 mg/kg, 0 h): 0.05 ± 0.03 ng/mL
Plasma concentration ([2]; male, Sprague-Dawley, rat, in vivo, sc, 1 mg/kg, 15 min): 30.13 ± 2.17 ng/mL
Plasma concentration ([2]; male, Sprague-Dawley, rat, in vivo, sc, 1 mg/kg, 30 min): 24.50 ± 1.59 ng/mL
Plasma concentration ([2]; male, Sprague-Dawley, rat, in vivo, sc, 1 mg/kg, 60 min): 16.8 ± 1.02 ng/mL
Plasma concentration ([2]; male, Sprague-Dawley, rat, in vivo, sc, 1 mg/kg, 120 min): 6.34 ± 0.39 ng/mL
Plasma concentration ([2]; male, Sprague-Dawley, rat, in vivo, sc, 1 mg/kg, 180 min): 3.55 ± 0.81 ng/mL
Plasma concentration ([2]; male, Sprague-Dawley, rat, in vivo, sc, 1 mg/kg, 240 min): 1.12 ± 0.14 ng/mL
Plasma concentration ([2]; male, Sprague-Dawley, rat, in vivo, sc, 1 mg/kg, 360 min): 0.35 ± 0.08 ng/mL
AUCExtrap [2, 5]: 4.26 ± 0.68%
λ [2, 5]: 0.59 ± 0.03 h⁻¹
AUC0-inf ([2]; male, Sprague-Dawley, rat, in vivo, sc, 3 mg/kg, AUC0-inf): 198 ± 8.33 ng·h/mL
AUC0-t ([2]; male, Sprague-Dawley, rat, in vivo, sc, 3 mg/kg, AUC0-t): 189 ± 7.75 ng·h/mL
Cmax ([2]; male, Sprague-Dawley, rat, in vivo, sc, 3 mg/kg, CMAX): 79.5 ± 3.76 ng/mL
CL/F [2, 5]: 255 mL/min/kg
half-life ([2]; male, Sprague-Dawley, rat, in vivo, sc, 3 mg/kg, Half-life): 70.8 ± 3 min
concentration at 0 h [2, 5]: 0.02 ± 0.02 ng/mL
concentration at 15 min [2, 5]: 71.1 ± 5.89 ng/mL
concentration at 30 min [2, 5]: 74.5 ± 5.1 ng/mL
concentration at 60 min [2, 5]: 63.4 ± 3.59 ng/mL
concentration at 120 min [2, 5]: 39.8 ± 2.4 ng/mL
concentration at 180 min [2, 5]: 27.8 ± 2.37 ng/mL
concentration at 240 min [2, 5]: 15.7 ± 1.48 ng/mL
concentration at 360 min [2, 5]: 4.85 ± 0.62 ng/mL
Tmax ([2]; male, Sprague-Dawley, rat, in vivo, sc, 3 mg/kg, TMAX): 22.8 ± 3.6 min
AUCExtrap [2, 6]: 32.22 ± 4.18%
λ [2, 6]: 0.21 ± 0.02 h⁻¹
AUC0-inf ([2]; male, Sprague-Dawley, rat, in vivo, sc, 10 mg/kg, AUC0-inf): 1290 ± 112 ng·h/mL
AUC0-t ([2]; male, Sprague-Dawley, rat, in vivo, sc, 10 mg/kg, AUC0-t): 858 ± 54.7 ng·h/mL
Cmax ([2]; male, Sprague-Dawley, rat, in vivo, sc, 10 mg/kg, CMAX): 213 ± 15.9 ng/mL
CL/F [2, 6]: 135 mL/min/kg
half-life ([2]; male, Sprague-Dawley, rat, in vivo, sc, 10 mg/kg, Half-life): 218 ± 32.4 min
concentration at 0 h [2, 6]: 0.09 ± 0.41 ng/mL
concentration at 15 min [2, 6]: 170 ± 18.8 ng/mL
concentration at 30 min [2, 6]: 190 ± 19.9 ng/mL
concentration at 60 min [2, 6]: 208 ± 15.6 ng/mL
concentration at 120 min [2, 6]: 179 ± 11.6 ng/mL
concentration at 180 min [2, 6]: 154 ± 15.1 ng/mL
concentration at 240 min [2, 6]: 116 ± 7.99 ng/mL
concentration at 360 min [2, 6]: 79.9 ± 6.24 ng/mL
Tmax ([2]; male, Sprague-Dawley, rat, in vivo, sc, 10 mg/kg, TMAX): 57.6 ± 15 min
Tmax ([2]; male, Sprague-Dawley, rat, in vivo, sc, TMAX): 15 to 60 min
half-life ([2]; male, Sprague-Dawley, rat, in vivo, sc): 53 to 218 min
Effect on inactive lever presses (cocaine-seeking behavior; acute and repeated pimavanserin 3 mg/kg, FA day 10): No main effect
Decrease of cue-reinforced lever presses vs. control (cocaine-seeking behavior; acute pimavanserin 3 mg/kg, FA day 10, p < 0.05): ~ 41.4%
Latency to the first response (cocaine-seeking behavior; acute pimavanserin 3 mg/kg, n.s. vs. control (14.39 ± 2.41 s)): 29.83 ± 5.43 s
Increase of latency to the first response vs. control (cocaine-seeking behavior; repeated pimavanserin 3 mg/kg): ~ 2.5 fold
Decrease of cue-reinforced lever presses vs. control (cocaine-seeking behavior; repeated pimavanserin 3 mg/kg twice daily for 10 days, FA day 10, p < 0.05): ~ 27.1%
Latency to the first response (cocaine-seeking behavior; repeated pimavanserin 3 mg/kg, p < 0.05 vs. control (14.39 ± 2.41 s)): 35.25 ± 7.81 s
Effect on cocaine infusions ([1]; acute pimavanserin 0.3, 1, 3 mg/kg, vs. control, Fig. 1A): No main effect
Active Lever Presses [1, 7]: 523.00 ± 54.57
Inactive Lever Presses [1, 7]: 3.44 ± 1.74

C[C@H]1CNCCc2ccc(Cl)cc21 [Lorcaserin, (1R)-8-chloro-2,3,4,5-tetrahydro-1-methyl-1H-3-benzazepine]
AUCExtrap [2, 8]: 12.68 ± 2.45%
λ [2, 8]: 0.31 ± 0.03 h⁻¹
AUCExtrap [2, 9]: 8.06 ± 0.47%
λ [2, 9]: 0.39 ± 0.02 h⁻¹
AUCExtrap [2, 10]: 7.97 ± 0.50%
λ [2, 10]: 0.38 ± 0.01 h⁻¹
Increase of latency to the first response vs. control (cocaine-seeking behavior; acute lorcaserin 1 mg/kg): ~ 6.7 fold
Decrease of cue-reinforced lever presses vs. control (cocaine-seeking behavior; acute lorcaserin 1 mg/kg, FA day 10, p < 0.05): ~ 64.4%
Suppression of inactive lever presses vs. control (cocaine-seeking behavior; acute lorcaserin 1 mg/kg, p < 0.05): ~ 64.6%
Latency to the first response (cocaine-seeking behavior; acute lorcaserin 1 mg/kg, p < 0.05 vs. control (14.39 ± 2.41 s)): 95.83 ± 35.78 s
Suppression of inactive lever presses vs. control (cocaine-seeking behavior; repeated lorcaserin 1 mg/kg): n.s.
Decrease of cue-reinforced lever presses vs. control (cocaine-seeking behavior; repeated lorcaserin 1 mg/kg twice daily for 10 days, FA day 10, p < 0.05): ~ 36.4%
Latency to the first response (cocaine-seeking behavior; repeated lorcaserin 1 mg/kg, n.s. vs. control (14.39 ± 2.41 s)): 30.15 ± 5.52 s
Effect on cocaine intake (infusions) ([1]; acute lorcaserin 1 mg/kg, vs. control, p < 0.05, Fig. 1B): suppressed cocaine intake
Active Lever Presses [1, 11]: 536.23 ± 16.03
Inactive Lever Presses [1, 11]: 2.08 ± 0.40
Active Lever Presses [1, 12]: 492.46 ± 18.99
Inactive Lever Presses [1, 12]: 3.00 ± 0.91

From PMC8980701 (Neuropharmacology, 2020)
